Results taken from US20210363213A1, “GLUCAGON-GLP-1-GIP TRIPLE AGONIST COMPOUNDS” (priority 2013, published 2021).
Peptide text beside a SMILES is read from it.

target: T1, human GIP R (Homo sapiens, UniProt P48546); assay: Human GIP receptor (GIP-R) activity assay, cAMP induction (AlphaScreen) in HEK293 cells; assay type: cell-based; conditions: not given
T1 construct: expressed in transfected cells
T1 sequence (P48546 22-466): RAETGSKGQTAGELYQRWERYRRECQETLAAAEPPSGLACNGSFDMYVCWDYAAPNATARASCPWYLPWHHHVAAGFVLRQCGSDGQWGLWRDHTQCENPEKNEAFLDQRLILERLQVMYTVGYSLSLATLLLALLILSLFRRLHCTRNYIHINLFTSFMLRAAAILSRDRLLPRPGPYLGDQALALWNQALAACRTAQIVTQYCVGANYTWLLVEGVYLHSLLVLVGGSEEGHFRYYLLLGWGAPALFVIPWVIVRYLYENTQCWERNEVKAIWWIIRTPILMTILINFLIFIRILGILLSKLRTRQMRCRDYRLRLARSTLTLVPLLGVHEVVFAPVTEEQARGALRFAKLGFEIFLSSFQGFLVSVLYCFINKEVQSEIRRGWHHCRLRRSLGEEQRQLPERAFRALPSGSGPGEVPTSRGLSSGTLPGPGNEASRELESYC

SMILES	EC50 [nM]
CC(C)C[C@H](NC(=O)[C@H](CC(C)C)NC(=O)[C@H](Cc1c[nH]c2ccccc12)NC(=O)[C@H](CCC(=O)O)NC(=O)[C@@H](NC(=O)[C@H](Cc1ccccc1)NC(=O)[C@H](CC(=O)O)NC(=O)[C@H](CCCNC(=N)N)NC(=O)[C@H](C)NC(=O)[C@H](C)NC(=O)[C@H](CCCCN)NC(=O)[C@H](CO)NC(=O)[C@H](CC(=O)O)NC(=O)[C@H](CC(C)C)NC(=O)[C@H](Cc1ccc(O)cc1)NC(=O)[C@H](CCCCN)NC(=O)[C@H](CO)NC(=O)[C@H](Cc1ccc(O)cc1)NC(=O)[C@H](CC(=O)O)NC(=O)[C@H](CO)NC(=O)[C@@H](NC(=O)[C@H](Cc1ccccc1)NC(=O)[C@@H](NC(=O)CNC(=O)[C@H](CCC(N)=O)NC(=O)C(C)(C)NC(=O)[C@@H](N)Cc1ccc(O)cc1)[C@@H](C)O)[C@@H](C)O)C(C)C)C(=O)N[C@@H](CO)C(=O)N[C@@H](C)C(N)=O [Compound 6] (HELM PEPTIDE1{Y.[Aib].Q.G.T.F.T.S.D.Y.S.K.Y.L.D.S.K.A.A.R.D.F.V.E.W.L.L.S.A.[am]}$$$$V2.0)	0.32
CC(C)C[C@H](NC(=O)[C@H](C)NC(=O)[C@H](CCCCN)NC(=O)[C@H](CO)NC(=O)[C@H](Cc1ccc(O)cc1)NC(=O)[C@H](CC(=O)O)NC(=O)[C@H](CO)NC(=O)[C@@H](NC(=O)[C@H](Cc1ccccc1)NC(=O)[C@@H](NC(=O)CNC(=O)[C@H](CCC(N)=O)NC(=O)C(C)(C)NC(=O)[C@@H](N)Cc1ccc(O)cc1)[C@@H](C)O)[C@@H](C)O)C(=O)N[C@@H](CC(=O)O)C(=O)N[C@@H](CO)C(=O)N[C@@H](CCCCN)C(=O)N[C@@H](C)C(=O)N[C@@H](C)C(=O)N[C@@H](Cc1c[nH]cn1)C(=O)N[C@@H](CC(=O)O)C(=O)N[C@@H](Cc1ccccc1)C(=O)N[C@H](C(=O)N[C@@H](CCC(=O)O)C(=O)N[C@@H](Cc1c[nH]c2ccccc12)C(=O)N[C@@H](CC(C)C)C(=O)N[C@@H](CC(C)C)C(=O)N[C@@H](CO)C(=O)N[C@@H](C)C(N)=O)C(C)C [Compound 7] (HELM PEPTIDE1{Y.[Aib].Q.G.T.F.T.S.D.Y.S.K.A.L.D.S.K.A.A.H.D.F.V.E.W.L.L.S.A.[am]}$$$$V2.0)	0.5
CC[C@H](C)[C@H](NC(=O)[C@H](CO)NC(=O)[C@H](Cc1ccc(O)cc1)NC(=O)[C@H](CC(=O)O)NC(=O)[C@H](CO)NC(=O)[C@@H](NC(=O)[C@H](Cc1ccccc1)NC(=O)[C@@H](NC(=O)CNC(=O)[C@H](CCC(N)=O)NC(=O)C(C)(C)NC(=O)[C@@H](N)Cc1ccc(O)cc1)[C@@H](C)O)[C@@H](C)O)C(=O)N[C@@H](Cc1ccc(O)cc1)C(=O)N[C@@H](CC(C)C)C(=O)N[C@@H](CC(=O)O)C(=O)N[C@@H](CO)C(=O)N[C@@H](CCCCN)C(=O)N[C@@H](C)C(=O)N[C@@H](C)C(=O)N[C@@H](CCCCN)C(=O)N[C@@H](CC(=O)O)C(=O)N[C@@H](Cc1ccccc1)C(=O)N[C@H](C(=O)N[C@@H](CCC(=O)O)C(=O)N[C@@H](Cc1c[nH]c2ccccc12)C(=O)N[C@@H](CC(C)C)C(=O)N[C@@H](CC(C)C)C(=O)N[C@@H](CO)C(=O)N[C@@H](C)C(N)=O)C(C)C [Compound 10] (HELM PEPTIDE1{Y.[Aib].Q.G.T.F.T.S.D.Y.S.I.Y.L.D.S.K.A.A.K.D.F.V.E.W.L.L.S.A.[am]}$$$$V2.0)	0.2
CC[C@H](C)[C@H](NC(=O)[C@H](CO)NC(=O)[C@H](Cc1ccc(O)cc1)NC(=O)[C@H](CC(=O)O)NC(=O)[C@H](CO)NC(=O)[C@@H](NC(=O)[C@H](Cc1ccccc1)NC(=O)[C@@H](NC(=O)CNC(=O)[C@H](CCC(N)=O)NC(=O)C(C)(C)NC(=O)[C@@H](N)Cc1ccc(O)cc1)[C@@H](C)O)[C@@H](C)O)C(=O)N[C@@H](Cc1ccc(O)cc1)C(=O)N[C@@H](CC(C)C)C(=O)N[C@@H](CC(=O)O)C(=O)N[C@@H](CO)C(=O)N[C@@H](CCCCN)C(=O)N[C@@H](C)C(=O)N[C@@H](C)C(=O)N[C@@H](Cc1c[nH]cn1)C(=O)N[C@@H](CC(=O)O)C(=O)N[C@@H](Cc1ccccc1)C(=O)N[C@H](C(=O)N[C@@H](CC(N)=O)C(=O)N[C@@H](Cc1c[nH]c2ccccc12)C(=O)N[C@@H](CC(C)C)C(=O)N[C@@H](CC(C)C)C(=O)N[C@@H](CO)C(=O)N[C@@H](C)C(N)=O)C(C)C [Compound 11] (HELM PEPTIDE1{Y.[Aib].Q.G.T.F.T.S.D.Y.S.I.Y.L.D.S.K.A.A.H.D.F.V.N.W.L.L.S.A.[am]}$$$$V2.0)	0.25

same assay, conditions: Table 2b (most comprehensive data); average EC50; cAMP in HEK293 cells expressing human GIP R; read-out: GIP R (EC50 in nM)

EC50 [nM]	SMILES
0.19	CCCCCCCCCCCCCCCC(=O)N[C@@H](CCC(=O)NCCCC[C@H](NC(=O)[C@H](CO)NC(=O)[C@H](Cc1ccc(O)cc1)NC(=O)[C@H](CC(=O)O)NC(=O)[C@H](CO)NC(=O)[C@@H](NC(=O)[C@H](Cc1ccccc1)NC(=O)[C@@H](NC(=O)CNC(=O)[C@H](CCC(N)=O)NC(=O)C(C)(C)NC(=O)[C@@H](N)Cc1ccc(O)cc1)[C@@H](C)O)[C@@H](C)O)C(=O)N[C@@H](Cc1ccc(O)cc1)C(=O)N[C@@H](CC(C)C)C(=O)N[C@@H](CCC(=O)O)C(=O)N[C@@H](CCCCN)C(=O)N[C@@H](CCCCN)C(=O)N[C@@H](C)C(=O)N[C@@H](C)C(=O)N[C@@H](CCCCN)C(=O)N[C@@H](CCC(=O)O)C(=O)N[C@@H](Cc1ccccc1)C(=O)N[C@H](C(=O)N[C@@H](CCC(=O)O)C(=O)N[C@@H](Cc1c[nH]c2ccccc12)C(=O)N[C@@H](CC(C)C)C(=O)N[C@@H](CC(C)C)C(=O)N[C@@H](CO)C(=O)N[C@@H](C)C(N)=O)C(C)C)C(=O)O [Compound 25] (HELM PEPTIDE1{Y.[Aib].Q.G.T.F.T.S.D.Y.S.K.Y.L.E.K.K.A.A.K.E.F.V.E.W.L.L.S.A.[am]}|PEPTIDE2{[CCCCCCCCCCCCCCCC(=O)[*:2]].[gGlu]}$PEPTIDE1,PEPTIDE2,12:R3-2:R2$$$V2.0)
0.099	CCCCCCCCCCCCCCCC(=O)N[C@@H](CCC(=O)NCCCC[C@H](NC(=O)[C@H](CO)NC(=O)[C@H](CC(=O)O)NC(=O)[C@H](CC(C)C)NC(=O)[C@H](Cc1ccc(O)cc1)NC(=O)[C@@H](NC(=O)[C@H](CO)NC(=O)[C@H](Cc1ccc(O)cc1)NC(=O)[C@H](CC(=O)O)NC(=O)[C@H](CO)NC(=O)[C@@H](NC(=O)[C@H](Cc1ccccc1)NC(=O)[C@@H](NC(=O)CNC(=O)[C@H](CCC(N)=O)NC(=O)C(C)(C)NC(=O)[C@@H](N)Cc1ccc(O)cc1)[C@@H](C)O)[C@@H](C)O)[C@@H](C)CC)C(=O)N[C@@H](C)C(=O)N[C@@H](C)C(=O)N[C@@H](Cc1c[nH]cn1)C(=O)N[C@@H](CC(=O)O)C(=O)N[C@@H](Cc1ccccc1)C(=O)N[C@H](C(=O)N[C@@H](CCC(=O)O)C(=O)N[C@@H](Cc1c[nH]c2ccccc12)C(=O)N[C@@H](CC(C)C)C(=O)N[C@@H](CC(C)C)C(=O)N[C@@H](CCCNC(=N)N)C(=O)N[C@@H](C)C(N)=O)C(C)C)C(=O)O [Compound 27] (HELM PEPTIDE1{Y.[Aib].Q.G.T.F.T.S.D.Y.S.I.Y.L.D.S.K.A.A.H.D.F.V.E.W.L.L.R.A.[am]}|PEPTIDE2{[CCCCCCCCCCCCCCCC(=O)[*:2]].[gGlu]}$PEPTIDE1,PEPTIDE2,17:R3-2:R2$$$V2.0)

SMILES	EC50 [nM]
CCCCCCCCCCCCCCCC(=O)N[C@@H](CCC(=O)NCCCC[C@H](NC(=O)[C@H](CO)NC(=O)[C@H](CC(=O)O)NC(=O)[C@H](CC(C)C)NC(=O)[C@H](Cc1ccc(O)cc1)NC(=O)[C@@H](NC(=O)[C@H](CO)NC(=O)[C@H](Cc1ccc(O)cc1)NC(=O)[C@H](CC(=O)O)NC(=O)[C@H](CO)NC(=O)[C@@H](NC(=O)[C@H](Cc1ccccc1)NC(=O)[C@@H](NC(=O)CNC(=O)[C@H](CCC(N)=O)NC(=O)C(C)(C)NC(=O)[C@@H](N)Cc1ccc(O)cc1)[C@@H](C)O)[C@@H](C)O)[C@@H](C)CC)C(=O)N[C@@H](C)C(=O)N[C@@H](C)C(=O)N[C@@H](Cc1c[nH]cn1)C(=O)N[C@@H](CC(=O)O)C(=O)N[C@@H](Cc1ccccc1)C(=O)N[C@H](C(=O)N[C@@H](CCC(=O)O)C(=O)N[C@@H](Cc1c[nH]c2ccccc12)C(=O)N[C@@H](CC(C)C)C(=O)N[C@@H](CC(C)C)C(=O)N[C@@H](CO)C(=O)N[C@@H](C)C(=O)NCC(=O)N1CCC[C@H]1C(=O)N[C@@H](CO)C(=O)N[C@@H](CO)C(=O)NCC(=O)N[C@@H](C)C(=O)N1CCC[C@H]1C(=O)N1CCC[C@H]1C(=O)N1CCC[C@H]1C(=O)N[C@@H](CO)C(N)=O)C(C)C)C(=O)O [Compound 29] (HELM PEPTIDE1{Y.[Aib].Q.G.T.F.T.S.D.Y.S.I.Y.L.D.S.K.A.A.H.D.F.V.E.W.L.L.S.A.G.P.S.S.G.A.P.P.P.S.[am]}|PEPTIDE2{[CCCCCCCCCCCCCCCC(=O)[*:2]].[gGlu]}$PEPTIDE1,PEPTIDE2,17:R3-2:R2$$$V2.0)	0.064
